Results reported in patent publication US10034886B2, “GLP-1 receptor modulators” (Celgene International II SÀRL, priority 2014, dated 2018).
pEC50: −log10 of the molar value. Like-named read-outs stand apart in the source and are kept apart here.

Molecular target: T1, GLP-1R (Homo sapiens, UniProt P43220)
T1 construct: host or cells: GLP-1R CRE-bla CHO-K1 cells
Experiment: EC20 GLP-1(9-36) PAM cAMP assay: dose response of compound in the presence of fixed concentration of GLP-1(9-36)
Assay type: cell-based
Conditions: GLP-1R CRE-bla CHO-K1 cells, read-out: EC20 GLP-1(9-36) PAM EC50
Outline: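 Positive allosteric modulation read as cAMP accumulation: compound titrations (12 points) combined with an EC20 level of GLP-1(9-36) on CHO-K1 GLP-1R CRE-bla cells, IBMX present, 30 min, 37 °C, pH 7.4 buffer. Luminescence converted to cAMP via standards; non-linear fit gave EC50 and Emax.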

[1] = dose response of compound in presence of fixed concentration of GLP-1(9-36)
[2] = compound dose response with fixed concentration of GLP-1(9-36)

T1 sequence (P43220 24-463): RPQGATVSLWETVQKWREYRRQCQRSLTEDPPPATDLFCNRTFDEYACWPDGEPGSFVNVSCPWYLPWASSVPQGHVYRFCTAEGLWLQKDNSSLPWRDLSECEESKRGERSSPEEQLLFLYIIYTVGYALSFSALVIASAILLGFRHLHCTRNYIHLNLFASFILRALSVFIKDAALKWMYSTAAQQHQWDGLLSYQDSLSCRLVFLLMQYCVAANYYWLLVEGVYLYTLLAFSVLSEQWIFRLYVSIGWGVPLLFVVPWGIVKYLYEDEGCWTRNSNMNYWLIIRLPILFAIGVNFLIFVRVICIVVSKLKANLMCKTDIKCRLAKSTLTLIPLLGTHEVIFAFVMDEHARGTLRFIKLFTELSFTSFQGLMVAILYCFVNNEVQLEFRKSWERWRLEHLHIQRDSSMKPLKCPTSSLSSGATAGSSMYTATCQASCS
T1 sequence (P01275 100-127 partner limits assumed): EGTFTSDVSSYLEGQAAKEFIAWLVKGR

| Compound | pEC50 [1] | pEC50 [2] |
| --- | --- | --- |
| CCCCCCCOc1ccc(-c2cnc(-c3ccc(C[C@H](NC(=O)c4ccc(C(C)(C)C)s4)C(=O)NCC(O)CO)cc3)nc2)cc1 (some centres unmarked) [Compound 462] | 5.00 to 5.30 | – |
| CCCCCCCOc1ccc(-c2cnc(-c3ccc(C[C@H](NC(=O)c4ccc(C(C)(C)C)cc4)C(=O)N[C@@H](CCCN)C(=O)O)cc3)nc2)cc1 [Compound 469] | 5.60 to 6.10 | – |
| CC(C)(C)c1ccc(C(=O)N[C@@H](Cc2ccc(-c3ncc(-c4ccc(-c5ccc(C(F)(F)F)cc5)cc4)cn3)cc2)C(=O)O)s1 [Compound 1355, (S)-2-(5-(tert-butyl)thiophene-2-carboxamido)-3-(4-(5-(4′-(trifluoromethyl)-[1,1′-biphenyl]-4-yl)pyrimidin-2-yl)phenyl)propanoic acid] | – | > 6.10 |
| CCCCCCCOc1ccc(-c2cnc(-c3ccc(C[C@H](NC(=O)c4ccc(C(C)(C)C)s4)C(=O)N[C@H](C(=O)O)[C@H](C)O)cc3)nc2)cc1 [Compound 646] | > 6.10 | – |
| CCCCCCCOc1ccc(-c2cnc(-c3ccc(C[C@H](NC(=O)c4ccc(C(C)(C)C)s4)C(=O)NC(Cc4nccs4)C(=O)O)cc3)nc2)cc1 (some centres unmarked) [Compound 592] | 5.60 to 6.10 | – |
| CCc1ccc(C(=O)N[C@@H](Cc2ccc(-c3ncc(-c4ccc(OCCCC(C)C)cc4)cn3)cc2)C(=O)N2CC(C(=O)O)C2)cc1 [Compound 1228] | – | 5.60 to 6.10 |
| CCC[C@H]1CC[C@H](C2CCN(c3cnc(-c4ccc(C[C@H](NC(=O)c5ccc(S(=O)(=O)C(C)C)cc5)C(=O)N5CC(C(=O)O)C5)cc4)nc3)CC2)CC1 [Compound 1523] | – | 5.60 to 6.10 |
| CCCCCCCOc1ccc(-c2cnc(-c3ccc(C[C@H](NC(=O)c4ccc(C(F)(F)F)s4)C(=O)NC(C(=O)O)C(O)c4ccccc4)cc3)nc2)cc1 (some centres unmarked) [Compound 948] | 5.30 to 5.60 | – |
| CCC[C@H]1CC[C@H](C2CCN(c3cnc(-c4ccc(CC(NC(=O)c5ccc(C(C)(C)C)s5)C(=O)NS(=O)(=O)CCOC)cc4)nc3)CC2)CC1 (some centres unmarked) [Compound 1540] | – | > 6.10 |
| CCCCCCCOc1ccc(-c2cnc(-c3ccc(C[C@H](NC(=O)c4ccc(C(C)(C)C)s4)C(=O)N[C@@H](c4n[nH]c(=S)o4)[C@@H](C)O)cc3)nc2)cc1 [Compound 895] | > 6.10 | – |
| CC(C)(C)CCCOc1ccc(-c2cnc(-c3ccc(C[C@H](NC(=O)c4ccc(C(C)(C)C)s4)C(=O)NC(C(=O)O)C(O)c4ccccc4)cc3)nc2)cc1 (some centres unmarked) [Compound 937] | 5.60 to 6.10 | – |
| CCCCCCCOc1ccc(-c2cnc(-c3ccc(C[C@H](NC(=O)c4ccc(C(C)(C)C)cc4)C(=O)NCC(CC4CCOCC4)C(=O)O)cc3)nc2)cc1 (some centres unmarked) [Compound 559] | 5.00 to 5.30 | – |
| CCCCCCCOc1ccc(-c2cnc(-c3ccc(C[C@H](NC(=O)c4ccc(C(C)(C)C)s4)C(=O)NC(C(=O)O)C(O)C(F)(F)F)cc3)nc2)cc1 (some centres unmarked) [Compound 882] | 5.60 to 6.10 | – |
| CCCCCCCOc1ccc(-c2cnc(-c3ccc(C[C@H](NC(=O)c4ccc(C(C)(C)C)s4)C(=O)NC[C@H]4C[C@H](N)C4)cc3)nc2)cc1 [Compound 879] | 5.30 to 5.60 | – |
| CCCCCCCOc1ccc(-c2cnc(-c3ccc(C[C@H](NC(=O)c4ccc(C(C)(C)C)cc4)C(=O)N[C@@H](CC(=O)N(C)CCN)C(=O)O)cc3)nc2)cc1 [Compound 509] | 5.60 to 6.10 | – |
| CCCCCCCOc1ccc(-c2cnc(-c3ccc(C[C@H](NC(=O)c4ccc(OCCC)cc4)C(=O)N4CC(C(=O)O)C4)cc3)nc2)cc1 [Compound 1105] | 5.30 to 5.60 | – |
| CCCCCCCOc1ccc(-c2cnc(-c3ccc(C[C@H](NC(=O)c4ccc(C(C)(C)C)cc4)C(=O)N[C@@H](CC(=O)NC)C(=O)O)cc3)nc2)cc1 [Compound 477, N^2—((S)-2-(4-(tert-butyl)benzamido)-3-(4-(5-(4-(heptyloxy)phenyl)pyrimidin-2-yl)phenyl)propanoyl)-N^4-methyl-L-asparagine] | > 6.10 | – |
| Cc1ccc(-c2ccc(-c3cnc(-c4ccc(C[C@H](NC(=O)c5ccc(C(C)(C)C)s5)C(=O)N5CC(C(=O)O)C5)cc4)nc3)c(F)c2)c(F)c1 [Compound 1204] | – | > 6.10 |
| CCc1ccc(C(=O)N[C@@H](Cc2ccc(-c3ncc(-c4ccc(OCCCC(C)C)cc4)cn3)cc2)C(=O)N2CC(C(=O)O)C2)nc1 [Compound 1245] | – | 5.30 to 5.60 |
| CC(C)Oc1cc(-c2cnc(-c3ccc(C[C@H](NC(=O)c4ccc(C(C)(C)C)s4)C(=O)N[C@H](C)C(=O)O)cc3)nc2)cc(Cl)c1OC(C)C [Compound 1017] | 5.30 to 5.60 | – |
| CCCCCCCOc1ccc(-c2cnc(-c3ccc(C[C@H](NC(=O)c4ccc(C(C)(C)C)s4)C(=O)N[C@H](Cc4ccccc4)C(=O)O)cc3)nc2)cc1 [Compound 647] | > 6.10 | – |
| C[C@@H](NC(=O)[C@H](Cc1ccc(-c2ncc(-c3cnc(-c4ccccc4)nc3)cn2)cc1)NC(=O)c1ccc(C(C)(C)C)s1)C(=O)O [Compound 1311] | – | 5.30 to 5.60 |
| CCCCCCCOc1ccc(-c2cnc(-c3ccc(C[C@H](NC(=O)c4ccc(C(C)(C)C)s4)C(=O)NCCN)cc3)nc2)cc1 [Compound 384] | 5.00 to 5.30 | – |
| CCCCc1ccc(-c2ccc(-c3cnc(-c4ccc(C[C@H](NC(=O)c5ccc(C(C)(C)C)s5)C(=O)N5CC(C(=O)O)C5)cc4)nc3)c(F)c2)cc1 [Compound 1226, (S)-1-(2-(5-(tert-butyl)thiophene-2-carboxamido)-3-(4-(5-(4′-butyl-3-fluoro-[1,1′-biphenyl]-4-yl)pyrimidin-2-yl)phenyl)propanoyl)azetidine-3-carboxylic acid] | – | > 6.10 |

| Compound | pEC50 [1] | pEC50 [2] |
| --- | --- | --- |
| COc1ccc(-c2cnc(-c3ccc(C[C@H](NC(=O)c4ccc(C(C)(C)C)s4)C(=O)N[C@H](C)C(=O)O)cc3)nc2)c(F)c1OC1CCCC1 [Compound 1019] | 5.30 to 5.60 | – |
| CC(C)(C)c1ccc(C(=O)N[C@@H](Cc2ccc(-c3ncc(-c4ccc(-c5ccc(C(F)(F)F)c(F)c5)cc4F)cn3)cc2)C(=O)N2CC(C(=O)O)C2)s1 [Compound 1217] | – | > 6.10 |
| CCCCCCCOc1ccc(-c2cnc(-c3ccc(C[C@H](NC(=O)c4ccc(CCC)s4)C(=O)N4CCC[C@H]4C(=O)O)cc3)nc2)cc1 [Compound 1069] | 5.60 to 6.10 | – |
| CCC[C@H]1CC[C@H](C2CCN(c3cnc(-c4ccc(CC(NC(=O)c5ccc(C(C)(C)C)s5)C(=O)NS(=O)(=O)CC(F)(F)F)cc4)nc3)CC2)CC1 (some centres unmarked) [Compound 1550] | – | > 6.10 |
| CCC[C@H]1CC[C@H](C2CCN(c3cnc(-c4ccc(CC(NC(=O)c5ccc(C(C)(C)C)s5)C(=O)NS(=O)(=O)C(C)(C)C)cc4)nc3)CC2)CC1 (some centres unmarked) [Compound 1546] | – | > 6.10 |
| CCCc1ccc(C(=O)N[C@@H](Cc2ccc(-c3ncc(-c4ccc([C@H]5CC[C@H](CC)CC5)cc4)cn3)cc2)C(=O)O)cc1 [Compound 1372] | – | 5.60 to 6.10 |
| Cc1ccc(/C=C/c2cnc(-c3ccc(C[C@H](NC(=O)c4ccc(C(C)(C)C)s4)C(=O)N4CCC[C@H]4C(=O)O)cc3)nc2)cc1 [Compound 1125] | 5.60 to 6.10 | – |
| CCC[C@H]1CC[C@H](C2CCN(c3cnc(-c4ccc(CC(NC(=O)c5ccc(C(C)(C)C)s5)C(=O)NS(=O)(=O)C(C)C)cc4)nc3)CC2)CC1 (some centres unmarked) [Compound 1545] | – | > 6.10 |
| CCCCCCCOc1ccc(-c2cnc(-c3ccc(C[C@H](NC(=O)c4ccc(C(C)(C)C)s4)C(=O)NC(C(=O)O)[C@H](C)c4ccccc4)cc3)nc2)cc1 (some centres unmarked) [Compound 896] | 5.00 to 5.30 | – |
| CCCCCCCOc1ccc(-c2cnc(-c3ccc(C[C@H](NC(=O)c4ccc(C(C)(C)C)cc4)C(=O)NCCC(=O)O)cc3)nc2)cc1CC [Compound 703] | > 6.10 | – |
| C[C@@H](NC(=O)[C@H](Cc1ccc(-c2ncc(-c3ccc(OC(F)(F)F)c(OCC4CC4)c3)cn2)cc1)NC(=O)c1ccc(C(C)(C)C)s1)C(=O)O [Compound 1027] | 5.00 to 5.30 | – |
| COc1ccccc1C1CCN(c2cnc(-c3ccc(C[C@H](NC(=O)c4ccc(C(C)(C)C)s4)C(=O)N4CC(C(=O)O)C4)cc3)nc2)CC1 [Compound 1492] | – | 5.60 to 6.10 |
| C[C@@H](NC(=O)[C@H](Cc1ccc(-c2ncc(-c3ccc(OCC(C)(C)C)cc3)cn2)cc1)NC(=O)c1ccc(C(C)(C)C)s1)C(=O)O [Compound 739] | > 6.10 | – |
| CC(C)(C)c1ccc(C(=O)N[C@@H](Cc2ccc(-c3ncc(-c4nc(-c5ccc(C(C)(C)C)cc5)no4)cn3)cc2)C(=O)NCCC(=O)O)cc1 [Compound 745] | 5.60 to 6.10 | – |
| CCCCCCCOc1ccc(-c2cnc(-c3ccc(CC(NC(=O)c4ccc(C(C)(C)C)s4)C(=O)Nc4cccc(C(=O)O)c4)cc3)nc2)cc1 (centres unmarked) [Compound 441] | 5.60 to 6.10 | – |
| CCCCCCCOc1ccc(-c2cnc(-c3ccc(C[C@H](NC(=O)c4ccc(C(C)(C)C)cc4)C(=O)NC(C(=O)O)C(C)c4ccccc4)cc3)nc2)cc1 (some centres unmarked) [Compound 574] | 5.60 to 6.10 | – |
| CC(C)(C)c1ccc(C(=O)N[C@@H](Cc2ccc(-c3ncc(-c4ccc(OCC5CCCC5)cc4)cn3)cc2)C(=O)NC(C(=O)O)C(O)c2ccccc2)s1 (some centres unmarked) [Compound 940] | 5.60 to 6.10 | – |
| CCc1ccc(C2CN(c3cnc(-c4ccc(CC(NC(=O)c5ccc(C(C)(C)C)s5)C(=O)N5CC(C(=O)O)C5)cc4)nc3)C2)cc1 (centres unmarked) [Compound 1418] | – | 5.00 to 5.30 |
| CC[C@H]1CC[C@H](c2ccc(-c3cnc(-c4ccc(C[C@H](NC(=O)c5ccc(C(C)(C)C)s5)C(=O)N[C@H](C(=O)O)C(C)C)cc4)nc3)cc2)CC1 [Compound 1328] | – | 5.60 to 6.10 |
| CC(C)COc1ccc(-c2cnc(-c3ccc(C[C@H](NC(=O)c4ccc(C(C)(C)C)s4)C(=O)NC(C(=O)O)C(O)c4ccccc4)cc3)nc2)cc1 (some centres unmarked) [Compound 934] | 5.00 to 5.30 | – |
| CCC[C@H]1CC[C@H](C2CCN(c3cnc(-c4ccc(C[C@H](NC(=O)c5ccc(C(C)(C)C)s5)C(=O)N[C@H](C)C(N)=O)cc4)nc3)CC2)CC1 [Compound 1441] | – | 5.60 to 6.10 |
| C[C@@H](NC(=O)[C@H](Cc1ccc(-c2ncc(-c3ccc(-c4ccnn4C)cc3)cn2)cc1)NC(=O)c1ccc(C(C)(C)C)s1)C(=O)O [Compound 1297] | – | 5.30 to 5.60 |
| CCCCCCCCc1noc(-c2cnc(-c3ccc(C[C@H](NC(=O)c4ccc(C(C)(C)C)cc4)C(=O)NCCC(=O)O)cc3)nc2)n1 [Compound 755] | 5.30 to 5.60 | – |
